# Ends that are not written are not given here.
# Tests used:
# rat FcεRI β chain = rat FcεRI β chain (Rattus norvegicus, UniProt P13386); experiment: Surface plasmon resonance, immobilized extracellular loop peptides of rat FcεRI β chain; details: SPR
# [1] = test system: rat peritoneal mast cells (RPMC); experiment: Secretory response (β-hexosaminidase release) of rat peritoneal mast cells; assay type: cell-based
# Source text: Rat peritoneal mast cells (RPMC) were isolated as previously described (Kim et al. J. Immunol. 162:4960-4965, […]). Mast cell preparations were ca. 95% pure, as evaluated by flow cytometric monitoring of FcεRI surface expression. Compound 48/80, a specific activator of serosal type mast cells elicited about 50% release of the total β-hexosaminidase content of the isolated rat peritoneal mast cells.
# (§1) Secretory response of mast cells.
# While mucosal type mast cells are non-responsive to peptidergic stimuli, the serosal type ones have been known for a long time to be stimulated by cationic secretagogues. The anaphylatoxic peptides C3a and C5a initiate the cells' secretory response by binding to their respective receptors expressed by serosal type mast cells. To investigate the effect of the peptides on this mast cell-type, RPMC were used. As expected, these cells did respond to both C5a and C3a (Table 2). However, degranulation was inhibited when peptides C3a7 or C3a9 were added to the IgE-sensitized RPMC and stimulated, 5 min later with a suboptimal antigen dose (Table 2).
# FcεRI β-chain = target: T1, FcεRI β-chain (Mus musculus, UniProt P20490); experiment: Covalent cross linking of C3a to BMMC, immunoprecipitation and Western blot; assay type: binding; details: C3a 50 μg/ml, BS3 cross linker
# T1 construct: endogenous in cells; host or cells: BMMC (bone marrow derived mast cells)
# T1 sequence (P20490 1-235): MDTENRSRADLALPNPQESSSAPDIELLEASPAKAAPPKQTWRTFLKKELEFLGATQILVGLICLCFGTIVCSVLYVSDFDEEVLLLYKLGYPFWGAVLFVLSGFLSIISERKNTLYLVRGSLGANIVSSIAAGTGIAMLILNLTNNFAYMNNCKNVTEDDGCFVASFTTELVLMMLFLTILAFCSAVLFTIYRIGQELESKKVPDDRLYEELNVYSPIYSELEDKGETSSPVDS
# T1 sequence (P20489 24-250 partner): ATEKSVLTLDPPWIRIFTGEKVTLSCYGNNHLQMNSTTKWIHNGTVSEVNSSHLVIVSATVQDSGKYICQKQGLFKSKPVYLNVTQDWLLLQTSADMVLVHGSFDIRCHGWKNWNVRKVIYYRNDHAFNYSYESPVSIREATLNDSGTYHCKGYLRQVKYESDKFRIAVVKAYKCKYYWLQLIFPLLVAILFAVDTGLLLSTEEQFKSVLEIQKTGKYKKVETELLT
# T1 sequence (P20491 19-86 partner): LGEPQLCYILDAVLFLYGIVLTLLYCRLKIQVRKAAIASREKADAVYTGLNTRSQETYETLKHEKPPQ
# Method: Covalent cross linking of C3a to BMMC. BMMC were washed and incubated with C3a (50 μg/ml per 15−20×10^6 cells/sample, in PBS) for 10 min at room temperature. After another incubation of 20 min at room temperature with 5 mM of the cross linking reagent bis-(sulphosuccinimidyl)-suberate (BS3, PIERCE, Ill., USA) cells were washed and lysed. Polyclonal rabbit antibodies specific to C3a (Behringwerke AG, Germany) were used for immunoprecipitation. Western blotting was carried out by an FcεRI β chain specific antibody kindly provided by Jean Pierre Kinet (Harvard University, Boston, USA). As secondary antibody, HRPO-conjugated goat anti-mouse IgG (DAKO, Frank Diagnosztika Kft, Hungary) was used. Detection was performed by ECL.
# Covalent cross-linking of C3a to BMMC. Since no C3a-receptors could be detected on mucosal type mast cells, the possibility that the peptides exert their inhibitory effect via interaction with a different cell membrane component, probably the type 1 Fcε-receptor, was examined. […] Since the ITAM-bearing β-chain had earlier been reported to act as an amplifier of the FcεRI response, the interaction of C3a with this membrane protein on BMMC was determined. Cells were incubated with C3a followed by adding the covalent cross linking agent, BS^3-reagent. […] Protein samples were separated by SDS-PAGE and analyzed by Western-blotting, using FcεRI β-chain specific antibodies.
# [2] = test system: bone marrow derived mast cells (BMMC); experiment: Secretory response (β-hexosaminidase release) of bone marrow derived mast cells; assay type: cell-based, mouse
# Method: Cells. Bone marrow derived mast cells (BMMC) were prepared from Balb/c mice as described by Nagao et al. (Science 212: 333-335, 1981). After 3 weeks, an approximately 95% pure mast cell population was obtained, showing high expression of FcεRI and stem cell factor receptor (c-kit), as measured by flow cytometry.
# as §1
# Similar experiments were carried out using bone-marrow derived mast cells (BMMC). […] The control peptide of the sequence DVSNYITR had no effect on either system.
# RBL-2H3 cells [3] = details: Erdei et al. 1995, 1999; cited from earlier work
# human FcεRI β chain = human FcεRI β chain (Homo sapiens, UniProt Q01362); experiment: Surface plasmon resonance, immobilized extracellular loop peptides of human FcεRI β chain; details: SPR
# PAG = PAG phosphorylation in RBL-2H3 cells; assay type: cell-based, rat
# Method: (§2) The inhibitory action of the peptide C3a31 on the FcεRI coupling cascade was also investigated using the rat mucosal-type RBL-2H3 line. Results of these experiments have shown that peptide C3a31 inhibited the phosphorylation of the protein tyrosine kinase Lyn and of the FcεRI β-chain. The inhibition on Lyn phosphorylation was observed after 1 min, and that on PAG phosphorylation (PAG has an important role in the regulation of src family kinases) after 3 min. However, C3a31 was also shown to enhance Lyn phosphorylation after 3 min. In addition, C3a31 inhibited Dok-1 phosphorylation after 5 min, but had no effect after 8 min.
# FcεRI β chain = experiment: Phosphorylation of FcεRI β chain in RBL-2H3 cells, Western blot; assay type: cell-based, rat; details: cells stimulated by antigen in the presence of peptide
# Method: (§3) Immunoprecipitation and Western blot. Mast cells were seeded in 10 cm Petri dishes (7×10^6 cells/dish) and saturated with A2IgE at 37° C. in DMEM overnight. After washing they were treated with peptides for 5 min and FcεRI was clustered by incubating with 5 ng/ml DNP11-BSA at 37° C. for 2 min. The reaction was terminated by 500 μl lysis buffer (1% Triton X-100, 50 mM HEPES, 100 mM NaF, 10 mM EDTA, 2 mM sodium orthovanadate, 10% glycerol, 10 mM sodium pyrophosphate, protease inhibitor cocktail 1:200, pH 7.4) per dish. The cells were scraped and the protein content of the post nuclear supernatants was adjusted to equal values using the Bradford-assay prior to precipitation by PT-66 phosphotyrosine specific antibody coated beads (10 μl beads per sample). The proteins were eluted by sample buffer containing 2-mercaptoethanol and were separated by SDS-PAGE, electrotransferred onto a nitrocellulose membrane and developed using the indicated antibodies and detected by ECL.
# (§4) These are known to include phosphorylation by the src-family PTK Lyn of the ITAMs of the FcεRI β and γ subunits.
# (§5) The inhibitory action of the peptide C3a31 on the FcεRI coupling cascade was also investigated using the rat mucosal-type RBL-2H3 line.
# [4] = test system: passive systemic anaphylaxis in mice; experiment: Passive systemic anaphylaxis, blood histamine; assay type: in vivo, mouse; details: peptide solution onto the nostrils before DNP-HSA antigen
# Method: Passive Systemic Anaphylaxis. Mice (Balb/c) were anesthetized with 300-400 μl of avertin and injected with 3 μg of the IgE class DNP-specific monoclonal antibody (SPE-7, Sigma) in 200 μl PBS by retroorbital injection (or tail vein). After 24 hours, mice were anesthetized with 300-400 μl of avertin and exposed to ca. 100 μl of the indicated peptide (inhibitory, SEQ ID NO:11, a control reversed peptide of SEQ ID NO:35 or peptide GAKDGNEYI-COOH of SEQ ID NO:36) solution in PBS positioned onto the nostrils. This was followed by injection of the antigen (DNP-derivatized human serum albumin, HSA, 100 μg in 200 μl of PBS) or PBS only, by retroorbital injection (or tail vein). After 1.5 minutes, mice were sacrificed by cervical dislocation and cardiac puncture performed. Heparin-rinsed syringes were now used for aspiration. Blood samples were spun at 4 degrees for 10 minutes at 8000 rpm in tabletop. Histamine was assayed by the Immunotech protocol for competitive ALP assay.
# The effect of C3a derived peptides on passive systemic anaphylaxis in mice was examined. […] The reverse peptide denoted C3a55 amide was ineffective (FIG. 5). A control group was treated with a non-relevant peptide having the amino acid sequence GAKDGNEYI-COOH of SEQ ID NO:36 prior to the injection of the antigen DNP-HSA.
# PLCγ-2 = PLCγ-2 phosphorylation in RBL-2H3 cells; assay type: cell-based, rat
# [5] = test system: ovalbumin-sensitized asthmatic mice; experiment: Murine asthma model, cell distribution in broncho alveolar lavage; assay type: in vivo, mouse
# Method: (§6) Inhibitory effect of the peptides on pulmonary functions. Mice (Balb/c, female, 8 weeks old) were first sensitized by ip injection of the antigen (Ag) ovalbumin. Thereafter, the mice were challenged 4 times by aerosol inhalation of the same Ag dispersed by nebulizer in a plexiglass chamber for about 20 min at one-week intervals. On day 28, the mice were first treated with an aerosol of the tested peptides dissolved in 0.1 M NaHCO3 and dispersed as above. As a result, the aerosol was inhaled by the animals for about 10 to 20 minutes. After inhalation, the animals were immediately challenged by inhalation (as above) of the sensitizing antigen (5% OVA in PBS) for 20 min. At the end of this treatment, the mice were immediately tested for pulmonary functions in conscious, freely moving state using plethysmography.
# (§7) The degree of bronchial constriction was monitored by the enhanced pause and its relation to airway resistance, impedance and intrapleural pressure in the mouse. Bronchoalveolar lavage (BAL) samples were obtained from these mice by cannulating the trachea, injecting 0.8 ml ice-cold saline (×2) and subsequently aspirating the BAL fluid. Following these tests, mice were sacrificed using general anesthesia with brevital (1 mg/ml). Their chests wall were opened, blood withdrawn and lungs were perfused with cold PBS and examined for cytology and histology.
# Table 3 provides results of analysis of the cells present in bronchi alveolar lavage (BAL) of mice treated by the same protocols as those subjected to analysis of lung function.
# [6] = test system: ovalbumin-sensitized asthmatic mice; experiment: Murine asthma model, lung function by plethysmography; assay type: in vivo, mouse; details: peptide aerosol prior to final ovalbumin challenge
# Method: as §6
# as §7, with “histology. […]” for “histology.”
# Lyn = experiment: Phosphorylation of Lyn in RBL-2H3 cells, Western blot; assay type: cell-based, rat
# Method: as §3, with “After washing they were treated with peptides for 5 min and FcεRI was clustered by incubating with 5 ng/ml DNP11-BSA at 37° C. for 2 min.” left out
# as §4, §5
# RBL-2H3 cells [7] = details: 250 μg of peptide
# Dok-1 = Dok-1 phosphorylation in RBL-2H3 cells; assay type: cell-based, rat
# Method: as §2
substance,measurement,setting,value
"C3a: human complement component C3a, a 77-mer peptide (SEQ ID NO:1), isolated",Interaction with the second extracellular loop of rat FcεRI β chain,rat FcεRI β chain,No interaction could be detected
same,Kd,"rat FcεRI β chain; read-out: Kd, first extracellular loop of rat FcεRI β chain, koff/kon",520 nM
same,Stimulation of secretory response of RPMC by the peptide itself,"[1]; non-sensitized cells, no antigen",did respond
same,Inhibitory effect (IC50) on the IgE-mediated degranulation of rat peritoneal mast cells (RPMC),[1]; suboptimal antigen-dose,Activation*
same,Cross-linked complex with FcεRI β-chain on BMMC,FcεRI β-chain,covalent complex
same,Inhibition of IgE-mediated secretory response of BMMC,[2],found to inhibit
same,Inhibition of IgE-mediated degranulation of RBL-2H3 cells (literature),RBL-2H3 cells [3],inhibit
same,Interaction with the second extracellular loop of human FcεRI β chain,human FcεRI β chain,No interaction could be detected
same,Kd,"human FcεRI β chain; read-out: Kd, first extracellular loop of human FcεRI β chain, koff/kon",250 nM
Ser-Asp-Ser-Ser-Asn-Tyr-Ile-Thr-Arg-NH2 (SDSSNYITR-NH2) [C3a31],PAG phosphorylation after 3 min,PAG,inhibition
same,Phosphorylation of the FcεRI β chain,FcεRI β chain,inhibited
same,"Symptoms of passive systemic anaphylaxis, histamine levels in mice blood",[4],found to reduce
same,Phosphorylation of PLCγ-2,PLCγ-2,inhibited
same,Eosinophils in BAL,[5]; OVA + peptide aerosol,4%
same,Lymphocutes in BAL,[5]; OVA + peptide aerosol,81%
same,Macrophages in BAL,[5]; OVA + peptide aerosol,1%
same,Mast Cells in BAL,[5]; OVA + peptide aerosol,4%
same,Neutrophils in BAL,[5]; OVA + peptide aerosol,13%
same,Type of cells detected in the BAL,[5]; peptide aerosol treatment,markedly affected
same,Antigen-induced symptoms (lung airway resistance) in asthma model,[6],effective in reducing
same,Lyn phosphorylation after 1 min,Lyn; after 1 min,inhibition
same,Lyn phosphorylation after 3 min,Lyn; after 3 min,enhance
same,Phosphorylation of Lyn,Lyn; cells stimulated by antigen in the presence of peptide,inhibited
same,Inhibition of IgE-mediated β-hexoseaminidase secretion from RBL-2H3 (FIG. 1B),RBL-2H3 cells [7],found to inhibit
same,Dok-1 phosphorylation after 5 min,Dok-1; after 5 min,inhibited
same,Dok-1 phosphorylation after 8 min,Dok-1; after 8 min,had no effect

# — patent US20090075898A1, “Complement C3A Derived Peptides and Uses Thereof” (Yeda Research and Development Co. Ltd. at the Weizmann …, priority 2005, published 2009)
